{"source": "paper PMC12715756", "about": "(ACS Chemical Neuroscience, 2025)", "key": {"[1]": {"biological_target": "T1, human organic cation transporter 1 (OCT1) (Homo sapiens, UniProt O15245)", "T1 sequence (O15245 1-554)": "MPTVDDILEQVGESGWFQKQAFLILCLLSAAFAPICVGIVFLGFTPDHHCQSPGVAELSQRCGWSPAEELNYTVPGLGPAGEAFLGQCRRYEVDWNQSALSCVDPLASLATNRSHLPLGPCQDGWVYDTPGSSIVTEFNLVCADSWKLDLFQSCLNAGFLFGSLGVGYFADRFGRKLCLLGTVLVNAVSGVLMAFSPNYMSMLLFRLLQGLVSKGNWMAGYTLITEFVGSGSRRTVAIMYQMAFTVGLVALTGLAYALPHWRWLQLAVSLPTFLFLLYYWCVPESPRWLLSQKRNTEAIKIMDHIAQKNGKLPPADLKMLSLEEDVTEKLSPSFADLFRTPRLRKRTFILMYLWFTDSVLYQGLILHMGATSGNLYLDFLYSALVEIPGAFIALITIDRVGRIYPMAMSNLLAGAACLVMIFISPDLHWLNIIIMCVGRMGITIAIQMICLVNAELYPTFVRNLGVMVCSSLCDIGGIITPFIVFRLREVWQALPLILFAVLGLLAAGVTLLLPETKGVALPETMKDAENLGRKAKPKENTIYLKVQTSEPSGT", "assay": "Uptake inhibition assay, [3H]MPP+ uptake in HEK293 cells"}, "[2]": {"biological_target": "T2, OCT2 (Homo sapiens, UniProt O15244)", "T2 sequence (O15244 1-555)": "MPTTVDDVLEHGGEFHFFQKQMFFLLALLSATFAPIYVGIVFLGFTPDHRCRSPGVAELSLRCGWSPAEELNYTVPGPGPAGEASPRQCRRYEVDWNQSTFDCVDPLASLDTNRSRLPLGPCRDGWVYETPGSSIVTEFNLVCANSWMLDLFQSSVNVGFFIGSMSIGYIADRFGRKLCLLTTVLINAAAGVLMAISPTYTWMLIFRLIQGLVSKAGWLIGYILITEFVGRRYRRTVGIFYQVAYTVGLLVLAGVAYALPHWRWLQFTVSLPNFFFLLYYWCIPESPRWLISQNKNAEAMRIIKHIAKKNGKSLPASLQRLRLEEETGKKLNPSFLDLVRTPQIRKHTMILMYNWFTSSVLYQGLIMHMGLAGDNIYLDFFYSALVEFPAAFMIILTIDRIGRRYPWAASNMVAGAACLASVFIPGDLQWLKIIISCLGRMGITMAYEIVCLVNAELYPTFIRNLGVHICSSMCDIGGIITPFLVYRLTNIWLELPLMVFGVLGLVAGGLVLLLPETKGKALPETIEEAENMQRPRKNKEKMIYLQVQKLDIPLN", "assay": "Uptake inhibition assay, [3H]MPP+ uptake in HEK293 cells"}, "[3]": {"biological_target": "T3, SERT (Homo sapiens, UniProt P31645)", "T3 sequence (P31645 whole entry)": "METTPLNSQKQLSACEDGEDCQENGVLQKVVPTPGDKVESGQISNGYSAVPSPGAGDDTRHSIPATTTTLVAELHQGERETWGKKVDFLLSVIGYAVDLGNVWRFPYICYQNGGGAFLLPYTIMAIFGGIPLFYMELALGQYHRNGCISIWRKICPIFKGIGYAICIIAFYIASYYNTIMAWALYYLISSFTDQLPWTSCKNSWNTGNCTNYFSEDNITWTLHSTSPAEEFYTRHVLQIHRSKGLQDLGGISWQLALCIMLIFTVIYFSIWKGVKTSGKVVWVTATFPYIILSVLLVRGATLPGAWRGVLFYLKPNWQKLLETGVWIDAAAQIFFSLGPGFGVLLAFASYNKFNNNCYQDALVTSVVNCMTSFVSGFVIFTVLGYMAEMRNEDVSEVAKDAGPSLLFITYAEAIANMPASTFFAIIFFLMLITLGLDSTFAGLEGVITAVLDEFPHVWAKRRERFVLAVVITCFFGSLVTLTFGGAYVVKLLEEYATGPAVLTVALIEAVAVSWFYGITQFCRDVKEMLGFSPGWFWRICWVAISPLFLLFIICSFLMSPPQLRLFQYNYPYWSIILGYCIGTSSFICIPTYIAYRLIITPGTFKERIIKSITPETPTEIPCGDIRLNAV", "assay": "Uptake inhibition assay, [3H]5-HT uptake in HEK293 cells", "assay_type": "cell-based", "set-up": "expressed in transfected cells"}, "[4]": {"biological_target": "T3, SERT", "assay": "Release (superfusion) assay, SERT mediated [3H]5-HT efflux", "settings": "for Emax: read-out: Emax [95%-CI], SERT mediated [3H]5-HT efflux"}, "[5]": {"tested_on": "male C57BL/6J mice", "assay": "Head-twitch response (HTR)", "assay_type": "in vivo", "settings": "IP, 30 min, doses based on the salt form", "experimental": "(§1) Male Swiss CD-1 mice (Janvier, Le Genest, France), weighing 30–35 g and aged 6–8 weeks, were used for HLA, thigmotaxis, CPP, and core body temperature experiments. Animals were housed under temperature-controlled conditions (22 ± 1 °C) with a 12 h light/dark cycle and had free access to food and water (standard laboratory diet, Panlab SL, Barcelona, Spain). Doses for HLA, thigmotaxis, CPP, and core body temperature experiments were calculated based on the free base form of each compound. For HTR experiments, male C57BL/6J mice (6–8 weeks old) were obtained from Jackson Laboratories (Bar Harbor, ME, USA) and housed up to four per cage with a reversed light-cycle (lights on at 1900 h, off at 0700 h). Food and water were provided ad libitum, except during behavioral testing. Testing was conducted between 1000 and 1830 h. Doses for HTR experiments were calculated based on the respective salt forms of the compounds.\nThe HTR was assessed using a head-mounted magnet and a magnetometer detection coil. Mice were anesthetized, a small incision was made in the scalp, and a small neodymium magnet was attached to the dorsal surface of the cranium by using dental cement. Following a two week recovery period, HTR experiments were carried out in a well-lit room with at least 7 days between sessions to avoid carryover effects. Mice (N = 4–7/group) received intraperitoneal (IP) injections of vehicle (saline) or test drug (5 mL/kg injection volume), and then activity was recorded in a glass cylinder surrounded by a magnetometer coil for 30 min. Doses for HTR experiments were calculated based on the respective salt forms of the compounds. Coil voltage was low-pass filtered (1 kHz cutoff frequency), amplified, digitized (20 kHz sampling rate, 16-bit ADC resolution), and saved to disk using a Powerlab 8/35 data acquisition system with LabChart software (ver. 8.1 ADInstruments, Colorado Springs, CO, USA). To detect head twitches, events in the recordings were transformed to scalograms, deep features were extracted using the deep convolutional neural network ResNet-50, and then the images were classified using a support vector machine (SVM). Head twitch counts were analyzed using one-way ANOVA. Posthoc comparisons were made using Dunnett’s test."}, "[6]": {"biological_target": "T4, 5-HT2A (Homo sapiens, UniProt P28223)", "T4 construct": "expressed in transfected cells; host or cells: HEK293T (ATCC; RRID:CVCL_0063), transient transfection", "T4 sequence (P28223 whole entry)": "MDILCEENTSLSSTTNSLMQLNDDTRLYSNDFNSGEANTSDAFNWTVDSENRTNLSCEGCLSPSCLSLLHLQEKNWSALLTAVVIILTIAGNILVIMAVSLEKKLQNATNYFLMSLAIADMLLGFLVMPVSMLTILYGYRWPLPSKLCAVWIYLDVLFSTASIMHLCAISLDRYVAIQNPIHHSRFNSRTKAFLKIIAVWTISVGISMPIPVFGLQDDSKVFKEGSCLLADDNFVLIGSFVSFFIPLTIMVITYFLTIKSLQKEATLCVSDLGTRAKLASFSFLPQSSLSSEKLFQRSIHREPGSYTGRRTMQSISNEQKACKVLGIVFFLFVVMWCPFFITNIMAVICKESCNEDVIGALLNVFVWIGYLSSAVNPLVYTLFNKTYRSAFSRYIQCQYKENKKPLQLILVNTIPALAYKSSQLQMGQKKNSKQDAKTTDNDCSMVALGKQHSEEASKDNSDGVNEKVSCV", "assay": "Gq dissociation BRET assay in HEK293T cells", "assay_type": "cell-based", "settings": "for EC50 / Emax ± SEM, %5-HT response 5-HT2A: Gq dissociation BRET; for Emax ± SEM, %5-HT response 5-HT2A: relative to 5-HT; for Emax: HEK-293T, read-out: Emax ± SEM, %5-HT response 5-HT2A, Gq dissociation BRET, relative to 5-HT"}, "[7]": {"tested_on": "DAT", "settings": "incubation at IC50 concentration for 60 min"}, "[8]": {"biological_target": "T5, DAT (Homo sapiens, UniProt Q01959)", "T5 sequence (Q01959 whole entry)": "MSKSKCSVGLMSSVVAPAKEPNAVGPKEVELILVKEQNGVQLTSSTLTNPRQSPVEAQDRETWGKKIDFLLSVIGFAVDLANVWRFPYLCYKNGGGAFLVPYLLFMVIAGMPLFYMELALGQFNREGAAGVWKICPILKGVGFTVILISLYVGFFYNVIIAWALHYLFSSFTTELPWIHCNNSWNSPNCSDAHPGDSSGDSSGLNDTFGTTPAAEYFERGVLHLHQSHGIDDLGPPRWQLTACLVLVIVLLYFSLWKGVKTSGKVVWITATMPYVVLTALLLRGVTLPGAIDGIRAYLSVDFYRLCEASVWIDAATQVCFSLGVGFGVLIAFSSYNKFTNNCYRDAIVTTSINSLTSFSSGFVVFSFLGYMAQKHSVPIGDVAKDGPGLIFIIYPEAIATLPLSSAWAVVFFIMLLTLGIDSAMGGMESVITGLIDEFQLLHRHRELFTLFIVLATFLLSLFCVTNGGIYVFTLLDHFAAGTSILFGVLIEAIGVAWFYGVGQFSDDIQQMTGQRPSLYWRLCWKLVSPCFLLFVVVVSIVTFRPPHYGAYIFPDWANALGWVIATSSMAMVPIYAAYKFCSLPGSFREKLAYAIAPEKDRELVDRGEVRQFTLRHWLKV", "assay": "cell-based", "settings": "read-out: Emax [95%-CI], DAT mediated [3H]MPP+ release"}, "[9]": {"biological_target": "T5, DAT"}, "[10]": {"biological_target": "T6, NET (Homo sapiens, UniProt P23975)", "T6 sequence (P23975 whole entry)": "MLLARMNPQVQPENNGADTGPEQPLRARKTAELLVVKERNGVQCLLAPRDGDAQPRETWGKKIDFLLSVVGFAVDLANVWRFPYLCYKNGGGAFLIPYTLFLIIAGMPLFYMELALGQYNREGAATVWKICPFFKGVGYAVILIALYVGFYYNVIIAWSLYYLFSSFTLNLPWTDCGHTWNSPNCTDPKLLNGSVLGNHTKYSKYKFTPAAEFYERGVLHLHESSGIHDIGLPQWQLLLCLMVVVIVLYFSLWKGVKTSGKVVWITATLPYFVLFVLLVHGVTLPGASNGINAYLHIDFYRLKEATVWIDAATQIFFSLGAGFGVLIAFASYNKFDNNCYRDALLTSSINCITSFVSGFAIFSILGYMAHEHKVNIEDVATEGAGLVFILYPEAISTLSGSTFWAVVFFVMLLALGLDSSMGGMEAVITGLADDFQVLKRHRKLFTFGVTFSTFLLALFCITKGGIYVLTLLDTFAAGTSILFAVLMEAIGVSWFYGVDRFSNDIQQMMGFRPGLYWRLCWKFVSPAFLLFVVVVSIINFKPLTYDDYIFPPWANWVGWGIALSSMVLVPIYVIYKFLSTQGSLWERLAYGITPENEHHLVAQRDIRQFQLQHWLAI", "assay": "Uptake inhibition assay, [3H]MPP+ uptake in HEK293 cells", "assay_type": "cell-based", "set-up": "expressed in transfected cells"}, "[11]": {"assay": "Metabolic stability, substrate depletion in pooled human liver microsomes", "settings": "human, pooled human liver microsomes"}, "[12]": {"biological_target": "T7, 5-HT2B (Homo sapiens, UniProt P41595)", "T7 construct": "expressed in transfected cells; host or cells: HEK293T (ATCC; RRID:CVCL_0063), transient transfection", "T7 sequence (P41595 whole entry)": "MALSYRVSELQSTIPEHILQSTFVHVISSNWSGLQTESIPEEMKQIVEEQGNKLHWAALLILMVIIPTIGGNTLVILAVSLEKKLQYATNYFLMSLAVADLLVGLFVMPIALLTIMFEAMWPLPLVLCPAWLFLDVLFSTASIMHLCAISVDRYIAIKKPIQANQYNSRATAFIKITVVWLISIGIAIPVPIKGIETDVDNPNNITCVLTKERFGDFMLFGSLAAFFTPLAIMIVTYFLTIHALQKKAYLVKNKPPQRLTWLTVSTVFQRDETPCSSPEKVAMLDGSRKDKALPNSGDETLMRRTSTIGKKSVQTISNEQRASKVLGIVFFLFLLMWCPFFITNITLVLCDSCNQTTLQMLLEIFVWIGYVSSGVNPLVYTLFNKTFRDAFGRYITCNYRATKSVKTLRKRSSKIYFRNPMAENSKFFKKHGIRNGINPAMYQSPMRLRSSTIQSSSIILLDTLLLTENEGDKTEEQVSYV", "assay": "Gq dissociation BRET assay in HEK293T cells", "assay_type": "cell-based", "settings": "for EC50: Gq dissociation BRET; for Emax: HEK-293T, read-out: Emax ± SEM, %5-HT response 5-HT2B"}, "[13]": {"biological_target": "T6, NET", "assay": "Release (superfusion) assay, NET mediated [3H]MPP+ release", "settings": "for Emax: read-out: Emax [95%-CI], NET mediated [3H]MPP+ release"}, "[14]": {"settings": "pHLM; literature data ref 9 (Alberto-Silva et al., 2024); cited from earlier work"}, "[15]": {"tested_on": "NGF-differentiated PC12 cells", "assay": "Cytotoxicity, WST-8 assay", "settings": "24 hours"}, "[16]": {"tested_on": "male Swiss CD-1 mice", "assay": "Conditioned place preference (CPP)", "assay_type": "in vivo", "settings": "10 mg/kg i.p., compared to saline", "experimental": "as §1\nFor this experiment, an apparatus with two distinct compartments, differing in tactile and visual cues, connected by a central corridor, was used. The conditioned place preference (CPP) procedure consisted of three phases: preconditioning, conditioning, and postconditioning. In the preconditioning phase (day 0), mice were placed in the middle of the corridor and allowed to freely explore both compartments for 15 min. The time spent in each compartment was recorded and monitored using specific tracking software (Smart 3.0 Panlab, Barcelona, Spain). In the conditioning phase (day 1–day 8), access to the corridor was closed. […] On alternate days, , mice received a saline i.p. injection and were placed in the other compartment for 30 min. Mice in the control group received a saline injection in every session. The compartments and sessions in which the drug was administered were randomized. In the postconditioning phase (test day), the same conditions as the preconditioning phase were reinstated. A preference score was determined by calculating the difference in time spent in the drug-paired compartment between the post- and preconditioning phases."}}}
{"smiles": "CC(N)Cc1ccc2c(c1)OCO2", "note": "(stereo not shown) [MDA, 3,4-Methylenedioxyamphetamine, reference compound]", "values": [{"measurement": "IC50", "setting": "[1]", "value": "6.93 ± 2.63", "unit": "µM"}, {"measurement": "IC50", "setting": "[2]", "value": "5.13 ± 1.18", "unit": "µM"}, {"measurement": "IC50", "setting": "[3]", "value": "22.9 ± 2.27", "unit": "µM"}, {"measurement": "EC50", "setting": "[4]", "value": 4.35, "unit": "µM"}, {"measurement": "type of releaser at SERT", "setting": "[4]", "value": "partial releasers"}, {"measurement": "Emax", "setting": "[4]", "value": 45.5, "unit": "%"}, {"measurement": "HTR counts", "setting": "[5]", "value": "dose-related increase in HTR counts peaking at 3 mg/kg"}, {"measurement": "EC50", "setting": "[6]; EC50 5-HT2A", "value": 0.905, "unit": "µM"}, {"measurement": "Emax ± SEM, %5-HT response 5-HT2A", "setting": "[6]", "value": "87.8 ± 2.4", "unit": "%"}, {"measurement": "Emax", "setting": "[6]", "value": "> 70", "unit": "%"}, {"measurement": "transporter expression on plasma membrane level", "setting": "[7]", "value": "expression levels slightly increased"}, {"measurement": "Emax", "setting": "[8]", "value": 67.2, "unit": "%"}, {"measurement": "type of releaser at DAT", "setting": "[9]", "value": "partial releasers"}, {"measurement": "IC50", "setting": "[10]", "value": "3.33 ± 0.47", "unit": "µM"}, {"measurement": "half-life at 0.5 μM", "setting": "[11]", "value": "> 2.5", "unit": "h"}, {"measurement": "EC50", "setting": "[12]; EC50 5-HT2B", "value": 0.139, "unit": "µM"}, {"measurement": "Emax", "setting": "[12]", "value": "104 ± 4.9", "unit": "%"}, {"measurement": "EC50", "setting": "[13]", "value": 0.35, "unit": "µM"}, {"measurement": "type of releaser at NET", "setting": "[13]", "value": "full releasers"}, {"measurement": "Emax", "setting": "[13]", "value": 126, "unit": "%"}]}
{"smiles": "CNC(C)Cc1ccc2c(c1)OCO2", "note": "(stereo not shown) [MDMA, 3,4-Methylenedioxymethamphetamine, reference compound]", "values": [{"measurement": "IC50", "setting": "[1]", "value": "5.09 ± 3.14", "unit": "µM"}, {"measurement": "in vitro half-life (t1/2)", "setting": "[14]", "value": "> 2.5", "unit": "h"}, {"measurement": "IC50", "setting": "[2]", "value": "5.3 ± 0.25", "unit": "µM"}, {"measurement": "concentration at which cytotoxicity starts", "setting": "[15]", "value": 2000, "unit": "µM"}, {"measurement": "IC50", "setting": "[3]", "value": "6.47 ± 0.93", "unit": "µM"}, {"measurement": "EC50", "setting": "[4]", "value": 1.95, "unit": "µM"}, {"measurement": "type of releaser at SERT", "setting": "[4]", "value": "partial releasers"}, {"measurement": "Emax", "setting": "[4]", "value": 39.3, "unit": "%"}, {"measurement": "HTR counts", "setting": "[5]", "value": "Neither MDMA nor SDMA induced an appreciable increase in HTR counts"}, {"measurement": "EC50", "setting": "[6]; EC50 5-HT2A", "value": 3.13, "unit": "µM"}, {"measurement": "Emax ± SEM, %5-HT response 5-HT2A", "setting": "[6]", "value": "66.0 ± 2.3", "unit": "%"}, {"measurement": "Emax", "setting": "[6]", "value": "< 70", "unit": "%"}, {"measurement": "EC50", "setting": "[6]; pEC50 ± SEM 5-HT2A", "value": 3.09, "unit": "µM"}, {"measurement": "Emax", "setting": "[8]", "value": 43.1, "unit": "%"}, {"measurement": "type of releaser at DAT", "setting": "[9]", "value": "partial releasers"}, {"measurement": "rewarding effects (CPP preference score)", "setting": "[16]", "value": "induce rewarding effects"}, {"measurement": "IC50", "setting": "[10]", "value": "3.17 ± 0.72", "unit": "µM"}, {"measurement": "EC50", "setting": "[12]; EC50 5-HT2B", "value": 0.531, "unit": "µM"}, {"measurement": "Emax", "setting": "[12]", "value": "59.9 ± 5.1", "unit": "%"}, {"measurement": "EC50", "setting": "[12]; pEC50 ± SEM 5-HT2B", "value": 0.525, "unit": "µM"}, {"measurement": "EC50", "setting": "[13]", "value": 0.73, "unit": "µM"}, {"measurement": "type of releaser at NET", "setting": "[13]", "value": "full releasers"}, {"measurement": "Emax", "setting": "[13]", "value": 111, "unit": "%"}]}
